Assay results taken from patent publication US20100062465A1, “Detection of Histone Deacetylase Inhibition” (priority 2006, published 2010).

Tested on: HDAC
Test: Fluor de Lys fluorometric assay of HDAC activity in PC3 cells
Type: cell-based, human
Details: 24 h
Experimental: Briefly 20×10^3 cells/well were seeded in 96 well plates and incubated for 24 h with (a) 1 mM BLT (b) FSAHA at 2, 5, 10 μM (c) SAHA at 2, 5, 10 μM (d) FSAHA at 2, 5, 7, 8, 9, 10 μM in the presence of 1 mM BLT (e) FSAHA at 2, 5, 7, 8, 9, 10 μM in the presence of vehicle (DMSO). The Fluor de Lys substrate was then added for 1 h, medium removed, cells rinsed with PBS and incubated for 10 minutes with the Fluor-de-Lys developer, and fluorescence read at 460 nm using the Tecan microplate reader as above. Results were normalized to cell density as determined using the WST-1 assay in the same 96 well plate.

O=C(CCCCCCC(=O)Nc1ccccc1)NO [SAHA, suberoylanilide hydroxamic acid, reference compound]
HDAC activity (relative to controls) (2 μM): 84±10%
HDAC activity (relative to controls) (5 μM): 51±3%
HDAC activity (relative to controls) (10 μM): 29±3%
